Source: publication PMC4305006 (Chemistry & biology, 2014)
≈ marks a conversion by molar mass, not a printed value.

System: Mtb BioA over-expression strain (BioA-OE)
Assay type: cell-based, Mycobacterium tuberculosis

Structure (SMILES): C=C(CCC(=O)O)c1nc2ccccc2s1 [Compound 13, 4-(benzothiazol-2-yl)pentenoic acid]
- MIC90 BioA-OE: 4.7 µM (≈ 1.1 µg/mL)
